pIC50: −log10 of the molar value.
Columns and labels:
Assay type in all cases: cell-based
HCN1 = target: T1, HCN1 (Homo sapiens, UniProt O60741); experiment: HCN1 automated patch clamp current inhibition assay (Ionworks Barracuda); settings: HEK-293 cells stably expressing HCN1; current inhibition during a hyperpolarizing pulse of -100 mV
T1 construct: expressed in transfected cells
T1 sequence (O60741 1-890): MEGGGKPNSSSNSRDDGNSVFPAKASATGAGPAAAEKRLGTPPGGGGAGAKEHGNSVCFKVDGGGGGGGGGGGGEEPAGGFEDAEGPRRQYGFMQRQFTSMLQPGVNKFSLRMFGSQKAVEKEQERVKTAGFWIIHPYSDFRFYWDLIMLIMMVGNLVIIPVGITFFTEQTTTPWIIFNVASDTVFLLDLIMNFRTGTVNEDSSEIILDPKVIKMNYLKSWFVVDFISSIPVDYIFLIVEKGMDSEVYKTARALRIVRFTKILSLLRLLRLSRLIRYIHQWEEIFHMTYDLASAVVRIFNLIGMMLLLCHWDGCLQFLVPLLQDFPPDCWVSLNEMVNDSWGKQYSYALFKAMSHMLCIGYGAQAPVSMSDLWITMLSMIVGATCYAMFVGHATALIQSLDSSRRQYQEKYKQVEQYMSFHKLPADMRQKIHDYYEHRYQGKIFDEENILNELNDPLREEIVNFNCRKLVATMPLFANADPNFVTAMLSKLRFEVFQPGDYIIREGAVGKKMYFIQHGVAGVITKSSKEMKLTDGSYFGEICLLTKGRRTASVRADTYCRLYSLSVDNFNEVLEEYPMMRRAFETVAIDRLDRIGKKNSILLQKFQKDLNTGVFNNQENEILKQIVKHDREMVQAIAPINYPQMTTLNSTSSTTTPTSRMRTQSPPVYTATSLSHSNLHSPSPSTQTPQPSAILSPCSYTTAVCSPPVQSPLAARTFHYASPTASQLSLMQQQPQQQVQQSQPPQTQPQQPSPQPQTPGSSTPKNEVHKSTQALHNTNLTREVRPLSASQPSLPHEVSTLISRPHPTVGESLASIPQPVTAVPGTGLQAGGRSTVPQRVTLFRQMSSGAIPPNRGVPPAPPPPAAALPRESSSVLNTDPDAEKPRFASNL
Procedure: (§1) In vitro, high-throughput cellular electrophysiology was employed to detect voltage- and use-dependence of compounds in single concentration screening and IC50 determination for library and medicinal chemistry profiling compounds in 384 well plates.
(§2) Cell cultures were maintained in DMEM/F12 cell growth media containing FBS and appropriate antibiotics at 37° C., 5% CO2 for a maximum of 20 passages. At a time point of 40-72 hours prior to assay, the expression of HCN protein in the cells is induced by addition of tetracyclin. Cells may be incubated at 27° C. for 2-24 hours of induction. […] Cells were harvested at 80% confluency and resuspended in extracellular buffer and added to wells. A freshly prepared Escin solution was added to intracellular buffer and applied to establish whole cell recording via perforated patch clampling by APC.
(§3) Currents through activated channels were measured directly by APC by employing hyperpolarizing voltage steps. The activation window was increased and stabilized by the addition of cell permeable Br-cAMP. Baselines were established for both use- and voltage-dependence protocols using a −30 mV holding potential and multiple test pulses at −100 mV or by 20 mV steps from −120 to 0 mV, respectively. Test compounds were added after baseline recordings followed by a 10 min incubation, voltage-dependency protocol recording, and use-dependency recording. Data was corrected for baseline and rundown (well based) and normalized for % inhibition (plate based). Five previously reported HCN inhibitors of varying potencies and selectivities and zatebradine were used for run to run and plate to plate quality controls. […] Percent inhibition was analysed at −80, −100, −120 mV of the voltage-dependency protocol and at pulse 0 and 50 of the use-dependency protocols. Selectivity was assessed against HCN2, HCN3, and HCN4 overexpressing cell lines using similar methods. As HCN4 has a slower activation than the other HCN channels, activation was extended to achieve steady state activation.

HCN3 = target: T2, HCN3 (Homo sapiens, UniProt Q9P1Z3); experiment: HCN3 automated patch clamp current inhibition assay (Ionworks Barracuda); settings: HEK-293 cells stably expressing HCN3; current inhibition during a hyperpolarizing pulse of -100 mV
T2 construct: expressed in transfected cells
T2 sequence (Q9P1Z3 1-774): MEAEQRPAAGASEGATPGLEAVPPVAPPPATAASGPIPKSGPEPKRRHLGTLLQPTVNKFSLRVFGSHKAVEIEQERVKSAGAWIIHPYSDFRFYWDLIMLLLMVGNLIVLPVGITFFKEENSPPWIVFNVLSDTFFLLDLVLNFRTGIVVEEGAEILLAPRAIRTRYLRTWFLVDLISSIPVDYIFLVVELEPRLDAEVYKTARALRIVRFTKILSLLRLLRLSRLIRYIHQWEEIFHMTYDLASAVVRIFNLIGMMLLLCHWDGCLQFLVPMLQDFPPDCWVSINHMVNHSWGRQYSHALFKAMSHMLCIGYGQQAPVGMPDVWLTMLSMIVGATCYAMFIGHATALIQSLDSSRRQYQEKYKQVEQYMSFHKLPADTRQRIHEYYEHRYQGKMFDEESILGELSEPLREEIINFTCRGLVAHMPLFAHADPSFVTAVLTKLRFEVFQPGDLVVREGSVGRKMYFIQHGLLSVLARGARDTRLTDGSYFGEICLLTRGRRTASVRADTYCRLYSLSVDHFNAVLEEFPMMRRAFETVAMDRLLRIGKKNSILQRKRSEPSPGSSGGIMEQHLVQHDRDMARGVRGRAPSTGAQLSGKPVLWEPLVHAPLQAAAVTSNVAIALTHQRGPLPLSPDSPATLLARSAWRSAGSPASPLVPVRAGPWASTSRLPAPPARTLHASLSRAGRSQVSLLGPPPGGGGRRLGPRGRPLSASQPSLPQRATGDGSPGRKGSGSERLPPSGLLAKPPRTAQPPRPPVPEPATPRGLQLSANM
Procedure: as §1, §2, §3

HCN4 = target: T3, HCN4 (Homo sapiens, UniProt Q9Y3Q4); experiment: HCN4 automated patch clamp current inhibition assay (Ionworks Barracuda); settings: HEK-293 cells stably expressing HCN4; current inhibition during a hyperpolarizing pulse of -100 mV
T3 construct: expressed in transfected cells
T3 sequence (Q9Y3Q4 1-1203): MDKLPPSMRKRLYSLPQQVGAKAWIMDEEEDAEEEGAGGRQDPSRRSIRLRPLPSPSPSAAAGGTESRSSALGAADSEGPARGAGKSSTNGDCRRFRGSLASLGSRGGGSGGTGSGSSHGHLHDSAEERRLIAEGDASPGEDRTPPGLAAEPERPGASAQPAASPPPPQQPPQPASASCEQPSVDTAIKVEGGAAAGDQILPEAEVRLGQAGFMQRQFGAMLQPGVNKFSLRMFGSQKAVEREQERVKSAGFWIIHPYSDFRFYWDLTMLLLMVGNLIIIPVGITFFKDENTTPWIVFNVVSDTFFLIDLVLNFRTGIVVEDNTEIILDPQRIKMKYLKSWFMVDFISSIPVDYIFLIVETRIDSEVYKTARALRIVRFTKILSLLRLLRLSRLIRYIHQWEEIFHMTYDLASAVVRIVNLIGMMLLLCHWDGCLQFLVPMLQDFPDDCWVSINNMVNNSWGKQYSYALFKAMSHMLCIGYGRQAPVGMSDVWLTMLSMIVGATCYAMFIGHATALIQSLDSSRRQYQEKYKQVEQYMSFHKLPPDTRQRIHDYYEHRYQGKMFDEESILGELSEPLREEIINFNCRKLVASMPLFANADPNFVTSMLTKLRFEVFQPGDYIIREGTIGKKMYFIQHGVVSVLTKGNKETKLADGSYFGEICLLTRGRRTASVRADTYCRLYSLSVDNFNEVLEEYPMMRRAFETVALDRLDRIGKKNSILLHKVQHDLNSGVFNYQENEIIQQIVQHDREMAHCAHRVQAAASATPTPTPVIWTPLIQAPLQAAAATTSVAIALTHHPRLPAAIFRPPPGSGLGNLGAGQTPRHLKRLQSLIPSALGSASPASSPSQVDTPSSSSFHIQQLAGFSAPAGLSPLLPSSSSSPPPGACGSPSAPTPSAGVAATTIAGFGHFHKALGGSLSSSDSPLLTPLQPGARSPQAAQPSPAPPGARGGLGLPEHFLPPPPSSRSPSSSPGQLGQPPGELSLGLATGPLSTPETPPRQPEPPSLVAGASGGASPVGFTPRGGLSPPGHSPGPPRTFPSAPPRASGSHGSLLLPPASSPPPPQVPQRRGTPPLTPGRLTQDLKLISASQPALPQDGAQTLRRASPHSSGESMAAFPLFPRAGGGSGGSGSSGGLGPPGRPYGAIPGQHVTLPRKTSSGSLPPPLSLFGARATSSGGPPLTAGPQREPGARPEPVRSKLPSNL
Procedure: as §1, §2, §3

pIC50 (HCN1)	pIC50 (HCN3)	pIC50 (HCN4)	Structure (SMILES)
5.39	< 4.40	–	Cc1ccc(-n2c(C(N)=O)nc(C#Cc3cc(Cl)ccn3)c2C)cn1 [Example 18, 4-((4-Chloropyridin-2-yl)ethynyl)-5-methyl-1-(6-methylpyridin-3-yl)-1H-imidazole-2-carboxamide]
6.90	4.69	< 4.40	Cc1cncc(-n2c(C(N)=O)nc(C#Cc3ccnc(Cl)c3C)c2C)c1 [Example 25, 4-[2-(2-Chloro-3-methyl-4-pyridyl)ethynyl]-5-methyl-1-(5-methyl-3-pyridyl)imidazole-2-carboxamide]
5.51	< 4.40	–	Cc1ccc(-n2c(C(N)=O)nc(C#Cc3ccccc3)c2C)cc1 [Example 37, 5-Methyl-4-(phenylethynyl)-1-(p-tolyl)-1H-imidazole-2-carboxamide]
5.71	< 4.40	–	Cc1ccc(-n2c(C(N)=O)nc(C#Cc3cccc(Cl)n3)c2C)cn1 [Example 14, 4-((6-Chloropyridin-2-yl)ethynyl)-5-methyl-1-(6-methylpyridin-3-yl)-1H-imidazole-2-carboxamide]
6.02	< 4.40	< 4.40	Cc1ccc(-c2c(C(N)=O)nc(C#Cc3ccnc(Cl)c3C)n2C)cn1 [Example 33]
6.64	< 4.40	< 4.40	Cc1ccc(-c2c(C(N)=O)nc(C#Cc3cccc(Cl)c3C)n2C)cn1 [Example 44, 2-[2-(3-Chloro-2-methyl-phenyl)ethynyl]-1-methyl-5-(6-methyl-3-pyridyl)imidazole-4-carboxamide]
6.04	< 4.40	–	Cc1ccc(-n2c(C(N)=O)nc(C#Cc3cccc4c3OCO4)c2C)cn1 [Example 13, 4-(Benzo[d][1,3]dioxol-4-ylethynyl)-5-methyl-1-(6-methylpyridin-3-yl)-1H-imidazole-2-carboxamide]
7.00	5.31	< 4.40	Cc1ccc(-c2c(C(N)=O)nc(C#Cc3cccc(Cl)c3)n2C)cn1 [Example 34, 2-[2-(3-Chlorophenyl)ethynyl]-1-methyl-5-(6-methyl-3-pyridyl)imidazole-4-carboxamide]
4.76	< 4.40	–	Cc1c(C#Cc2ccnc(Cl)c2)nc(C(N)=O)n1-c1ccc(F)cc1F [Example 41, 4-(2-Chloro-pyridin-4-ylethynyl)-1-(2,4-difluoro-phenyl)-5-methyl-1H-imidazole-2-carboxylic Acid Amide]
5.60	< 4.40	–	Cc1ccc(-n2cc(C#Cc3ccnc(Cl)c3)nc2C(N)=O)cn1 [Example 43, 4-((2-Chloropyridin-4-yl)ethynyl)-1-(6-methylpyridin-3-yl)-1H-imidazole-2-carboxamide]
4.95	< 4.40	–	Cc1ccc(-n2c(C(N)=O)nc(C#Cc3ccncc3)c2C)cn1 [Example 21, 5-Methyl-1-(6-methyl-3-pyridyl)-4-[2-(4-pyridyl)ethynyl]imidazole-2-carboxamide]

Source: US12528784B2, “Alkynyl-(heteroaryl)-carboxamide HCN1 inhibitors” (Hoffmann-La Roche Inc., priority 2019, dated 2026)
